Test results from patent US20170015979A1 (Instituto Tecnológico y de Estudios Superiores de Monterrey, priority 2015, published 2017).
Several values for one entry are separate records, joined by “and”; a condition that tells them apart may be missing. Equal entries are not always repeated. Where two headings read alike, the source gives them in different places.

Legend:
Kluyveromyces marxianus = assay: Yeast sensitivity on YPGE agar; format: cell-based
Protocol: (§1) Example 4. […] From a single overnight grown colony of each yeast strain, 25 mL of yeast extract-peptone-dextrose (YPD) broth were inoculated and grown for 16 hours at 30° C. and 150 rpm.

[1] = test system: Saccharomyces cerevisiae ATCC 44774; assay: Yeast sensitivity on YPGE agar; format: cell-based
Protocol: as §1

Kluyvermyces lactis = assay: Yeast sensitivity on YPGE agar; format: cell-based
Protocol: as §1

Pichia pastoris = assay: Yeast sensitivity on YPGE agar; format: cell-based; settings: 10^6 cells plated
Protocol: as §1

[2] = test system: N. benthamiana leaf explants; assay: Killing curve for tobacco leaf explants; format: cell-based; settings: for explants exhibiting necrosis: 200 μg/mL, after 7 days, MS solid medium; for shoot induction observed (share of plates): after 30 days
Text: FIG. 6. Doxycycline killing curve for N. benthamiana leaf explants.

[3] = test system: Jalapeño hypocotyl, epicotyl and shoot tip tissues; assay: Sensitivity of Jalapeño explants; format: cell-based; settings: 200 μg/mL; initially evaluated after 15 days
[4] = test system: C. reinhardtii strain CC-849
Protocol: Glass bead transformation C. reinhardtii strain CC-849 was transformed with supercoiled plasmid DNA of Atetx, Btetx, pKS-aphVIII or pSP124S (Table 4) by the glass bead method. Briefly, the algae were grown at 25° C. with a 18/6 (light/dark) photoperiod in TAP media to mid-log phase (1-2×10^6 cells/mL), the cells were harvested by centrifugation 5 min. at 5000 g, the growth medium was removed and fresh TAP was added to achieve a cell concentration of 2×10^8 cells/mL. 300 μL of the cell suspension were placed in a 1.5 mL centrifuge tube containing 0.3 g of sterile 0.4-0.6 mm diameter glass beads (Sigma, St. Louis, Mo.) and 1×10^−12 mols of the desired plasmid DNA. The cell/DNA/glass bead suspensions were vortexed 15 s at maximum power in a VWR mini vortex. The cells were transferred to a glass tube with 5 mL of fresh TAP media and incubated at 25° C. overnight with a 8/6 (light/dark) photoperiod. After 14 hours the cells were concentrated by centrifugation at 5,000 g for 15 minutes and resuspended in TAP media to yield either 3×10^7 cells/mL of pKS-aphVIII and pSP124S transformants and 2.5×10^6, 5×10^6, 1×10^7 or 3×10^7 cells/mL for tetx transformants. […] When colonies appeared, they were streaked on to selective TAP agar plates.
C. reinhardtii strain CC-849 was transformed with supercoiled plasmid DNA of AtetX and BtetX, by the glass bead method. […]

[5] = 10^5 cells plated, 2 days of incubation

Row | SMILES | concentration at which growth was inhibited (Kluyveromyces marxianus; 10^6 cells plated) | concentration at which growth was inhibited (Kluyveromyces marxianus; 10^7 cells plated) | concentration at which growth was inhibited ([1]; 10^5 cells plated) | concentration at which growth was inhibited ([1]; 10^7 cells plated) | concentration at which growth was inhibited (Kluyvermyces lactis; 10^6 cells plated) | concentration at which growth was inhibited (Kluyvermyces lactis; 10^7 cells plated) | concentration at which growth was inhibited (Pichia pastoris) | explants exhibiting necrosis [2] | explants exhibiting necrosis [3] | decrease of number of positive colonies compared to 15 μg/mL ([4]; tetracycline 25 μg/mL for selection of primary transformants) | decrease of number of positive colonies compared to 15 μg/mL ([4]; tetracycline 50 μg/mL for selection of primary transformants) | concentration at which growth was inhibited (Kluyveromyces marxianus; [5]) | concentration at which growth was inhibited ([1]; 2 days of incubation, cell number not clearly stated) | concentration at which growth was inhibited (Kluyvermyces lactis; [5]) | shoot induction observed (share of plates) ([2]; 15 μg/mL) | shoot induction observed (share of plates) ([2]; 25 μg/mL)
1 | C[C@H]1c2cccc(O)c2C(=O)C2=C(O)[C@]3(O)C(=O)C(C(N)=O)=C(O)[C@@H](N(C)C)[C@@H]3[C@@H](O)[C@@H]21 [doxycycline] | 675 µg/mL and 1000 µg/mL | 1000 µg/mL | 1000 µg/mL | 1000 µg/mL | 675 µg/mL and 1000 µg/mL | 1000 µg/mL | 1000 µg/mL | 100% | 100% |  |  |  |  |  |  | 
2 | CN(C)[C@@H]1C(O)=C(C(N)=O)C(=O)[C@@]2(O)C(O)=C3C(=O)c4c(O)cccc4[C@@](C)(O)[C@H]3C[C@@H]12 [tetracycline, Tetracycline] | 1000 µg/mL |  |  |  |  |  |  | 100% | 100% | approximately 75% | approximately 75% | 350 to 1000 µg/mL | 500 µg/mL and 750 µg/mL and 1000 µg/mL | 750 µg/mL and 1000 µg/mL | 50% | 50%
